According to patent publication US9474790B2, “Stable, protracted GLP-1/glucagon receptor co-agonists for medical use” (Novo Nordisk A/S, priority 2013, dated 2016):
pEC50: −log10 of the molar value. Numbered stars: 1 amine (or outer) side, 2 acyl side, 3 side chain; on linkers, the order of the positions; unused ones are H or OH. Bridge positions count the residues as written; N and C are the ends. Square brackets hold non-standard residues; d marks the D form. Side chains are listed from the residue outwards. Peptide text beside a SMILES is read from it. I, II: the chains in the order shown. * marks the point of attachment. C18 diacid = O=C(O)CCCCCCCCCCCCCCCCC(=O)*; γGlu = O=C(O)[C@H](CCC(=O)[*:2])N[*:1]; Ac4c = NC1(C(=O)O)CCC1; AEEA = NCCOCCOCC(=O)O; Aib = CC(C)(N)C(=O)O

How the values were obtained:
[1] = Thioflavin T (ThT) fibrillation assay for physical stability; type: physicochemical; details: 250 μM in 10 mM HEPES buffer, pH 7.5, 37° C., shaking 960 rpm
In short: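 Fibrillation was followed by ThT (1 μM) fluorescence every 20 min, 444/485 nm, for 250 μM peptide in 10 mM HEPES pH 7.5 shaken at 960 rpm, 37° C. Lag time (t0−2τ) and apparent rate constant (1/τ) come from a sigmoidal fit. Recovery is % of initial concentration remaining soluble after centrifugation and filtration (RP-HPLC).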

[2] = biological target: T1, human GLP-1 receptor (Homo sapiens, UniProt P43220); assay: GLP-1 receptor potency, CRE luciferase reporter gene assay in BHK cells; type: cell-based; details: BHK cells expressing human GLP-1 receptor, read-out: EC50 GLP-1R
T1 construct: expressed in transfected cells; host or cells: BHK cells (parent BHKTS13), clone FCW467-12A/KZ10-1, with CRE luciferase
T1 sequence (P43220 24-463): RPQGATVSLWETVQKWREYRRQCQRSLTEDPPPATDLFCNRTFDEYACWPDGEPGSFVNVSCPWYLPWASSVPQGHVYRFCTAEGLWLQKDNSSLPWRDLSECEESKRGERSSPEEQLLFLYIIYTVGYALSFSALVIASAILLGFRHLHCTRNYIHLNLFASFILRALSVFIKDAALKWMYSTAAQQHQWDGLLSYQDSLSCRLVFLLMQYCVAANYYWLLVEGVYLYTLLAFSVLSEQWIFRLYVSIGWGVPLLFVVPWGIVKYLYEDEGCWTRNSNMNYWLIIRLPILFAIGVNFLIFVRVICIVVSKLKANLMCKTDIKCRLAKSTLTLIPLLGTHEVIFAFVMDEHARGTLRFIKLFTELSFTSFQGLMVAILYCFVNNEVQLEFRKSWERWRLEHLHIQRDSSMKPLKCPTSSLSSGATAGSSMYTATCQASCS
In short: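 Potency as cAMP-driven firefly luciferase signal after 3 h, 37° C exposure to 10-fold dilutions (final 1×10EE-13–1×10EE-6 M). Stable hGLP-1R/CRE-luc BHK clone, 5×10EE3 cells/well, medium containing 2% ovalbumin and 0.2% Pluronic F-68; EC50 (pM) from variable-slope non-linear regression.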

Row | SMILES | THT assay Lag time (Ex. 76) [1] [h] | pEC50 [2]
1 | CC(C)C[C@H](NC(=O)[C@H](Cc1ccc(O)cc1)NC(=O)[C@H](CCCCN)NC(=O)[C@H](CO)NC(=O)[C@H](CC(C)C)NC(=O)[C@H](CC(=O)O)NC(=O)[C@H](CO)NC(=O)[C@@H](NC(=O)[C@H](Cc1ccccc1)NC(=O)[C@@H](NC(=O)CNC(=O)[C@H](CCC(N)=O)NC(=O)C(C)(C)NC(=O)[C@@H](N)Cc1c[nH]cn1)[C@@H](C)O)[C@@H](C)O)C(=O)N[C@@H](CCC(=O)O)C(=O)N[C@@H](CO)C(=O)N[C@@H](CCCNC(=N)N)C(=O)N[C@@H](CCCNC(=N)N)C(=O)N[C@@H](C)C(=O)N[C@@H](CCCNC(=N)N)C(=O)N[C@@H](CCC(=O)O)C(=O)N[C@@H](Cc1ccccc1)C(=O)N[C@H](C(=O)N[C@@H](CCC(N)=O)C(=O)N[C@@H](Cc1c[nH]c2ccccc12)C(=O)N[C@@H](CC(C)C)C(=O)N[C@@H](CC(C)C)C(=O)N[C@@H](CCCCNC(=O)CC[C@H](NC(=O)CC[C@H](NC(=O)CC[C@H](NC(=O)CCCCCCCCCCCCCCCCC(=O)O)C(=O)O)C(=O)O)C(=O)O)C(=O)N[C@H](C(N)=O)[C@@H](C)O)C(C)C [Example 41, N^ε28-[(4S)-4-carboxy-4-[[(4S)-4-carboxy-4-[[(4S)-4-carboxy-4-(17-carboxyheptadecanoylamino)butanoyl]amino]butanoyl]amino]butanoyl]-[Aib2,Leu10,Glu15, Arg20,Glu21,Leu27,Lys28]-Glucagon amide] (H-H[Aib]QGTFTSDLSKYLESRRAREFVQWLLK([γGlu-γGlu-γGlu-C18 diacid])T-NH2; N-terminus assumed) | 45 | 11.15
2 | CC(C)C[C@H](NC(=O)[C@H](CC(=O)O)NC(=O)[C@H](CC(C)C)NC(=O)[C@H](Cc1ccc(O)cc1)NC(=O)[C@H](CCCCN)NC(=O)[C@H](CO)NC(=O)[C@H](CC(C)C)NC(=O)[C@H](CC(=O)O)NC(=O)[C@H](CO)NC(=O)[C@@H](NC(=O)[C@H](Cc1ccccc1)NC(=O)[C@@H](NC(=O)CNC(=O)[C@H](CCC(N)=O)NC(=O)C1(NC(=O)[C@@H](N)Cc2c[nH]cn2)CCC1)[C@@H](C)O)[C@@H](C)O)C(=O)N[C@@H](CCCCN)C(=O)N[C@@H](CCCNC(=N)N)C(=O)N[C@@H](C)C(=O)N[C@@H](CCCNC(=N)N)C(=O)N[C@@H](CCC(=O)O)C(=O)N[C@@H](Cc1ccccc1)C(=O)N[C@H](C(=O)N[C@@H](CCC(N)=O)C(=O)N[C@@H](Cc1c[nH]c2ccccc12)C(=O)N[C@@H](CC(C)C)C(=O)N[C@@H](CC(C)C)C(=O)N[C@@H](CCCCNC(=O)CNC(=O)[C@H](CO)NC(=O)[C@H](CCC(=O)O)NC(=O)CNC(=O)[C@H](CO)NC(=O)CC[C@H](NC(=O)CC[C@H](NC(=O)CCCCCCCCCCCCCCCCC(=O)O)C(=O)O)C(=O)O)C(=O)N[C@H](C(N)=O)[C@@H](C)O)C(C)C [Example 48] (I: H-H[Ac4c]QGTFTSDLSKYLDLKRAREFVQWLLKT-NH2 / II: {C18 diacid-γGlu-γGlu}-SGESG; amide I:28-II:C; N-terminus assumed) | 45 | 10.36
3 | CC(C)C[C@H](NC(=O)[C@H](Cc1ccc(O)cc1)NC(=O)[C@H](CCCCN)NC(=O)[C@H](CO)NC(=O)[C@H](CC(C)C)NC(=O)[C@H](CC(=O)O)NC(=O)[C@H](CO)NC(=O)[C@@H](NC(=O)[C@H](Cc1ccccc1)NC(=O)[C@@H](NC(=O)CNC(=O)[C@H](CCC(N)=O)NC(=O)C(C)(C)NC(=O)[C@@H](N)Cc1c[nH]cn1)[C@@H](C)O)[C@@H](C)O)C(=O)N[C@@H](CCC(=O)O)C(=O)N[C@@H](CO)C(=O)N[C@@H](CCCNC(=N)N)C(=O)N[C@@H](CCCNC(=N)N)C(=O)N[C@@H](C)C(=O)N[C@@H](CCCNC(=N)N)C(=O)N[C@@H](CCC(=O)O)C(=O)N[C@@H](Cc1ccccc1)C(=O)N[C@H](C(=O)N[C@@H](CCC(N)=O)C(=O)N[C@@H](Cc1c[nH]c2ccccc12)C(=O)N[C@@H](CC(C)C)C(=O)N[C@@H](CC(C)C)C(=O)N[C@@H](CCCCNC(=O)CC[C@H](NC(=O)CC[C@H](NC(=O)COCCOCCNC(=O)COCCOCCNC(=O)CC[C@H](NC(=O)CCCCCCCCCCCCCCCCC(=O)O)C(=O)O)C(=O)O)C(=O)O)C(=O)N[C@H](C(N)=O)[C@@H](C)O)C(C)C [Example 23, N^ε28-[(4S)-4-carboxy-4-[[(4S)-4-carboxy-4-[[2-[2-[2-[[2-[2-[2-[[(4S)-4-carboxy-4-(17-carboxyheptadecanoylamino)butanoyl]amino]ethoxy]ethoxy]acetyl]amino]ethoxy]ethoxy]acetyl]amino]butanoyl]amino]butanoyl]-[Aib2,Leu10,Glu15,Arg20,Glu21,Leu27,Lys28]-Glucagon amide] (H-H[Aib]QGTFTSDLSKYLESRRAREFVQWLLK([γGlu-γGlu-AEEA-AEEA-γGlu-C18 diacid])T-NH2; N-terminus assumed) | 45 | 10.66

The remaining lines, values ahead:

Row | THT assay Lag time (Ex. 76) [1] [h] | pEC50 [2] | SMILES
4 | 20 | 11.22 | CC(C)C[C@H](NC(=O)[C@H](Cc1ccc(O)cc1)NC(=O)[C@H](CCCCN)NC(=O)[C@H](CO)NC(=O)[C@H](CC(C)C)NC(=O)[C@H](CC(=O)O)NC(=O)[C@H](CO)NC(=O)[C@@H](NC(=O)[C@H](Cc1ccccc1)NC(=O)[C@@H](NC(=O)CNC(=O)[C@H](CCC(N)=O)NC(=O)C1(NC(=O)[C@@H](N)Cc2c[nH]cn2)CCC1)[C@@H](C)O)[C@@H](C)O)C(=O)N[C@@H](CCC(=O)O)C(=O)N[C@@H](CO)C(=O)N[C@@H](CCCNC(=N)N)C(=O)N[C@@H](CCCNC(=N)N)C(=O)N[C@@H](C)C(=O)N[C@@H](CCCNC(=N)N)C(=O)N[C@@H](CCC(=O)O)C(=O)N[C@@H](Cc1ccccc1)C(=O)N[C@H](C(=O)N[C@@H](CCC(N)=O)C(=O)N[C@@H](Cc1c[nH]c2ccccc12)C(=O)N[C@@H](CC(C)C)C(=O)N[C@@H](CC(C)C)C(=O)N[C@@H](CCCCNC(=O)CC[C@H](NC(=O)CC[C@H](NC(=O)COCCOCCNC(=O)COCCOCCNC(=O)CC[C@H](NC(=O)CC[C@H](NC(=O)CCCCCCCCCCCCCCCCC(=O)O)C(=O)O)C(=O)O)C(=O)O)C(=O)O)C(=O)N[C@H](C(N)=O)[C@@H](C)O)C(C)C [Example 61, N^ε28-[(4S)-4-carboxy-4-[[(4S)-4-carboxy-4-[[2-[2-[2-[[2-[2-[2-[[(4S)-4-carboxy-4-[[(4S)-4-carboxy-4-(17-carboxyheptadecanoylamino)butanoyl]amino]butanoyl]amino]ethoxy]ethoxy]acetyl]amino]ethoxy]ethoxy]acetyl]amino]butanoyl]amino]butanoyl]-[Acb2,Leu10,Glu15,Arg20,Glu21,Leu27,Lys28]-Glucagon amide] (H-H[Ac4c]QGTFTSDLSKYLESRRAREFVQWLLK([γGlu-γGlu-AEEA-AEEA-γGlu-γGlu-C18 diacid])T-NH2; N-terminus assumed)
5 | 45 | 11.15 | CC(C)C[C@H](NC(=O)[C@H](Cc1ccc(O)cc1)NC(=O)[C@H](CCCCN)NC(=O)[C@H](CO)NC(=O)[C@H](CC(C)C)NC(=O)[C@H](CC(=O)O)NC(=O)[C@H](CO)NC(=O)[C@@H](NC(=O)[C@H](Cc1ccccc1)NC(=O)[C@@H](NC(=O)CNC(=O)[C@H](CCC(N)=O)NC(=O)C(C)(C)NC(=O)[C@@H](N)Cc1c[nH]cn1)[C@@H](C)O)[C@@H](C)O)C(=O)N[C@@H](CCC(=O)O)C(=O)N[C@@H](CO)C(=O)N[C@@H](CCCCN)C(=O)N[C@@H](CCCNC(=N)N)C(=O)N[C@@H](C)C(=O)N[C@@H](CCCNC(=N)N)C(=O)N[C@@H](CO)C(=O)N[C@@H](Cc1ccccc1)C(=O)N[C@H](C(=O)N[C@@H](CCC(N)=O)C(=O)N[C@@H](Cc1c[nH]c2ccccc12)C(=O)N[C@@H](CC(C)C)C(=O)N[C@@H](CC(C)C)C(=O)N[C@@H](CCCCNC(=O)CC[C@H](NC(=O)CC[C@H](NC(=O)[C@H](CO)NC(=O)[C@H](CCC(=O)O)NC(=O)[C@H](CO)NC(=O)CC[C@H](NC(=O)CC[C@H](NC(=O)CCCCCCCCCCCCCCCCC(=O)O)C(=O)O)C(=O)O)C(=O)O)C(=O)O)C(=O)N[C@H](C(N)=O)[C@@H](C)O)C(C)C [Example 69, N^ε28-[(4S)-4-carboxy-4-[[(4S)-4-carboxy-4-[[(2S)-2-[[(2S)-4-carboxy-2-[[(2S)-2-[[(4S)-4-carboxy-4-[[(4S)-4-carboxy-4-(17-carboxyheptadecanoylamino)butanoyl]amino]butanoyl]amino]-3-hydroxypropanoyl]amino]butanoyl]amino]-3-hydroxypropanoyl]amino]butanoyl]amino]butanoyl]-[Aib2,Leu10,Glu15,Lys17,Arg20,Ser21,Leu27,Lys28]-Glucagon amide] (H-H[Aib]QGTFTSDLSKYLESKRARSFVQWLLK([γGlu-γGlu-Ser-Glu-Ser-γGlu-γGlu-C18 diacid])T-NH2; N-terminus assumed)
6 | 45 | 11.22 | CC(C)C[C@H](NC(=O)[C@H](Cc1ccc(O)cc1)NC(=O)[C@H](CCCCN)NC(=O)[C@H](CO)NC(=O)[C@H](CC(C)C)NC(=O)[C@H](CC(=O)O)NC(=O)[C@H](CO)NC(=O)[C@@H](NC(=O)[C@H](Cc1ccccc1)NC(=O)[C@@H](NC(=O)CNC(=O)[C@H](CCC(N)=O)NC(=O)C(C)(C)NC(=O)[C@@H](N)Cc1c[nH]cn1)[C@@H](C)O)[C@@H](C)O)C(=O)N[C@@H](CC(=O)O)C(=O)N[C@@H](C)C(=O)N[C@@H](CCCNC(=N)N)C(=O)N[C@@H](CCCNC(=N)N)C(=O)N[C@@H](C)C(=O)N[C@@H](CCCNC(=N)N)C(=O)N[C@@H](CC(=O)O)C(=O)N[C@@H](Cc1ccccc1)C(=O)N[C@H](C(=O)N[C@@H](CCC(N)=O)C(=O)N[C@@H](Cc1c[nH]c2ccccc12)C(=O)N[C@@H](CC(C)C)C(=O)N[C@@H](CC(C)C)C(=O)N[C@@H](CC(N)=O)C(=O)N[C@@H](CCCCNC(=O)CC[C@H](NC(=O)CC[C@H](NC(=O)COCCOCCNC(=O)COCCOCCNC(=O)CC[C@H](NC(=O)CCCCCCCCCCCCCCCCC(=O)O)C(=O)O)C(=O)O)C(=O)O)C(N)=O)C(C)C [Example 65] (H-H[Aib]QGTFTSDLSKYLDARRARDFVQWLLNK([γGlu-γGlu-AEEA-AEEA-γGlu-C18 diacid])-NH2; N-terminus assumed)
